± gives the expanded uncertainty stated by the source.
Assay: mn = molality of the nth substance listed, in mol/kg
Conditions: 101.3 kPa, Liquid, Vibrating tube method

SMILES: O=C(O)CC(=O)O [propanedioic acid] + O
- mass density (278.15 K, m1 = 0.01001): 1000.48 ± 0.4 kg/m3
- mass density (278.15 K, m1 = 0.02001): 1000.91 ± 0.4 kg/m3
- mass density (278.15 K, m1 = 0.03): 1001.31 ± 0.4 kg/m3
- mass density (278.15 K, m1 = 0.03962): 1001.73 ± 0.4 kg/m3
- mass density (278.15 K, m1 = 0.04998): 1002.16 ± 0.4 kg/m3
- mass density (278.15 K, m1 = 0.05936): 1002.53 ± 0.4 kg/m3
- mass density (278.15 K, m1 = 0.06926): 1002.93 ± 0.4 kg/m3
- mass density (278.15 K, m1 = 0.07949): 1003.34 ± 0.4 kg/m3
- mass density (278.15 K, m1 = 0.08906): 1003.73 ± 0.4 kg/m3
- mass density (278.15 K, m1 = 0.09935): 1004.11 ± 0.4 kg/m3
- mass density (278.15 K, m1 = 0.1984): 1008.06 ± 0.4 kg/m3
- mass density (278.15 K, m1 = 0.2977): 1011.96 ± 0.4 kg/m3
- mass density (278.15 K, m1 = 0.404): 1016 ± 0.4 kg/m3
- mass density (278.15 K, m1 = 0.5055): 1019.85 ± 0.4 kg/m3
- mass density (278.15 K, m1 = 0.6055): 1023.51 ± 0.4 kg/m3
- mass density (278.15 K, m1 = 0.6936): 1026.73 ± 0.4 kg/m3
- mass density (278.15 K, m1 = 0.7926): 1030.29 ± 0.41 kg/m3
- mass density (278.15 K, m1 = 0.891): 1033.82 ± 0.41 kg/m3
- mass density (278.15 K, m1 = 0.9895): 1037.16 ± 0.41 kg/m3
- mass density (283.15 K, m1 = 0.01001): 1000.21 ± 0.4 kg/m3
- mass density (283.15 K, m1 = 0.02001): 1000.62 ± 0.4 kg/m3
- mass density (283.15 K, m1 = 0.03): 1001 ± 0.4 kg/m3
- mass density (283.15 K, m1 = 0.03962): 1001.4 ± 0.4 kg/m3
- mass density (283.15 K, m1 = 0.04998): 1001.83 ± 0.4 kg/m3
- mass density (283.15 K, m1 = 0.05936): 1002.19 ± 0.4 kg/m3
- mass density (283.15 K, m1 = 0.06926): 1002.58 ± 0.4 kg/m3
- mass density (283.15 K, m1 = 0.07949): 1002.98 ± 0.4 kg/m3
- mass density (283.15 K, m1 = 0.08906): 1003.36 ± 0.4 kg/m3
- mass density (283.15 K, m1 = 0.09935): 1003.73 ± 0.4 kg/m3
- mass density (283.15 K, m1 = 0.1984): 1007.6 ± 0.4 kg/m3
- mass density (283.15 K, m1 = 0.2977): 1011.4 ± 0.4 kg/m3
- mass density (283.15 K, m1 = 0.404): 1015.36 ± 0.4 kg/m3
- mass density (283.15 K, m1 = 0.5055): 1019.12 ± 0.4 kg/m3
- mass density (283.15 K, m1 = 0.6055): 1022.71 ± 0.4 kg/m3
- mass density (283.15 K, m1 = 0.6936): 1025.86 ± 0.4 kg/m3
- mass density (283.15 K, m1 = 0.7926): 1029.35 ± 0.4 kg/m3
- mass density (283.15 K, m1 = 0.891): 1032.8 ± 0.41 kg/m3
- mass density (283.15 K, m1 = 0.9895): 1036.1 ± 0.41 kg/m3
- mass density (288.15 K, m1 = 0.01001): 999.61 ± 0.4 kg/m3
- mass density (288.15 K, m1 = 0.02001): 1000.03 ± 0.4 kg/m3
- mass density (288.15 K, m1 = 0.03): 1000.4 ± 0.4 kg/m3
- mass density (288.15 K, m1 = 0.03962): 1000.79 ± 0.4 kg/m3
- mass density (288.15 K, m1 = 0.04998): 1001.21 ± 0.4 kg/m3
- mass density (288.15 K, m1 = 0.05936): 1001.57 ± 0.4 kg/m3
- mass density (288.15 K, m1 = 0.06926): 1001.95 ± 0.4 kg/m3
- mass density (288.15 K, m1 = 0.07949): 1002.34 ± 0.4 kg/m3
- mass density (288.15 K, m1 = 0.08906): 1002.71 ± 0.4 kg/m3
- mass density (288.15 K, m1 = 0.09935): 1003.07 ± 0.4 kg/m3
- mass density (288.15 K, m1 = 0.1984): 1006.87 ± 0.4 kg/m3
- mass density (288.15 K, m1 = 0.2977): 1010.6 ± 0.4 kg/m3
- mass density (288.15 K, m1 = 0.404): 1014.47 ± 0.4 kg/m3
- mass density (288.15 K, m1 = 0.5055): 1018.15 ± 0.4 kg/m3
- mass density (288.15 K, m1 = 0.6055): 1021.67 ± 0.4 kg/m3
- mass density (288.15 K, m1 = 0.6936): 1024.77 ± 0.4 kg/m3
- mass density (288.15 K, m1 = 0.7926): 1028.19 ± 0.4 kg/m3
- mass density (288.15 K, m1 = 0.891): 1031.58 ± 0.4 kg/m3
- mass density (288.15 K, m1 = 0.9895): 1034.82 ± 0.41 kg/m3
- mass density (293.15 K, m1 = 0.01001): 998.7 ± 0.4 kg/m3
- mass density (293.15 K, m1 = 0.02001): 999.1 ± 0.4 kg/m3
- mass density (293.15 K, m1 = 0.03): 999.47 ± 0.4 kg/m3
- mass density (293.15 K, m1 = 0.03962): 999.85 ± 0.4 kg/m3
- mass density (293.15 K, m1 = 0.04998): 1000.27 ± 0.4 kg/m3
- mass density (293.15 K, m1 = 0.05936): 1000.61 ± 0.4 kg/m3
- mass density (293.15 K, m1 = 0.06926): 1000.99 ± 0.4 kg/m3
- mass density (293.15 K, m1 = 0.07949): 1001.37 ± 0.4 kg/m3
- mass density (293.15 K, m1 = 0.08906): 1001.73 ± 0.4 kg/m3
- mass density (293.15 K, m1 = 0.09935): 1002.12 ± 0.4 kg/m3
- mass density (293.15 K, m1 = 0.1984): 1005.8 ± 0.4 kg/m3
- mass density (293.15 K, m1 = 0.2977): 1009.46 ± 0.4 kg/m3
- mass density (293.15 K, m1 = 0.404): 1013.26 ± 0.4 kg/m3
- mass density (293.15 K, m1 = 0.5055): 1016.89 ± 0.4 kg/m3
- mass density (293.15 K, m1 = 0.6055): 1020.35 ± 0.4 kg/m3
- mass density (293.15 K, m1 = 0.6936): 1023.39 ± 0.4 kg/m3
- mass density (293.15 K, m1 = 0.7926): 1026.76 ± 0.4 kg/m3
- mass density (293.15 K, m1 = 0.891): 1030.1 ± 0.4 kg/m3
- mass density (293.15 K, m1 = 0.9895): 1033.27 ± 0.41 kg/m3
- mass density (298.15 K, m1 = 0.01001): 997.52 ± 0.4 kg/m3
- mass density (298.15 K, m1 = 0.02001): 997.93 ± 0.4 kg/m3
- mass density (298.15 K, m1 = 0.03): 998.3 ± 0.4 kg/m3
- mass density (298.15 K, m1 = 0.03962): 998.66 ± 0.4 kg/m3
- mass density (298.15 K, m1 = 0.04998): 999.07 ± 0.4 kg/m3
- mass density (298.15 K, m1 = 0.05936): 999.4 ± 0.4 kg/m3
- mass density (298.15 K, m1 = 0.06926): 999.78 ± 0.4 kg/m3
- mass density (298.15 K, m1 = 0.07949): 1000.15 ± 0.4 kg/m3
- mass density (298.15 K, m1 = 0.08906): 1000.52 ± 0.4 kg/m3
- mass density (298.15 K, m1 = 0.09935): 1000.89 ± 0.4 kg/m3
- mass density (298.15 K, m1 = 0.1984): 1004.55 ± 0.4 kg/m3
- mass density (298.15 K, m1 = 0.2977): 1008.15 ± 0.4 kg/m3
- mass density (298.15 K, m1 = 0.404): 1011.88 ± 0.4 kg/m3
- mass density (298.15 K, m1 = 0.5055): 1015.45 ± 0.4 kg/m3
- mass density (298.15 K, m1 = 0.6055): 1018.85 ± 0.4 kg/m3
- mass density (298.15 K, m1 = 0.6936): 1021.85 ± 0.4 kg/m3
- mass density (298.15 K, m1 = 0.7926): 1025.16 ± 0.4 kg/m3
- mass density (298.15 K, m1 = 0.891): 1028.44 ± 0.4 kg/m3
- mass density (298.15 K, m1 = 0.9895): 1031.58 ± 0.4 kg/m3
- mass density (303.15 K, m1 = 0.01001): 996.14 ± 0.4 kg/m3
- mass density (303.15 K, m1 = 0.02001): 996.53 ± 0.4 kg/m3
- mass density (303.15 K, m1 = 0.03): 996.9 ± 0.4 kg/m3
- mass density (303.15 K, m1 = 0.03962): 997.28 ± 0.4 kg/m3
- mass density (303.15 K, m1 = 0.04998): 997.66 ± 0.4 kg/m3
- mass density (303.15 K, m1 = 0.05936): 997.99 ± 0.4 kg/m3
- mass density (303.15 K, m1 = 0.06926): 998.37 ± 0.4 kg/m3
- mass density (303.15 K, m1 = 0.07949): 998.72 ± 0.4 kg/m3
- mass density (303.15 K, m1 = 0.08906): 999.08 ± 0.4 kg/m3
- mass density (303.15 K, m1 = 0.09935): 999.45 ± 0.4 kg/m3
- mass density (303.15 K, m1 = 0.1984): 1003.05 ± 0.4 kg/m3
- mass density (303.15 K, m1 = 0.2977): 1006.6 ± 0.4 kg/m3
- mass density (303.15 K, m1 = 0.404): 1010.27 ± 0.4 kg/m3
- mass density (303.15 K, m1 = 0.5055): 1013.79 ± 0.4 kg/m3
- mass density (303.15 K, m1 = 0.6055): 1017.14 ± 0.4 kg/m3
- mass density (303.15 K, m1 = 0.6936): 1020.08 ± 0.4 kg/m3
- mass density (303.15 K, m1 = 0.7926): 1023.35 ± 0.4 kg/m3
- mass density (303.15 K, m1 = 0.891): 1026.58 ± 0.4 kg/m3
- mass density (303.15 K, m1 = 0.9895): 1029.66 ± 0.4 kg/m3
- mass density (308.15 K, m1 = 0.01001): 994.51 ± 0.4 kg/m3
- mass density (308.15 K, m1 = 0.02001): 994.89 ± 0.4 kg/m3
- mass density (308.15 K, m1 = 0.03): 995.23 ± 0.4 kg/m3
- mass density (308.15 K, m1 = 0.03962): 995.6 ± 0.4 kg/m3
- mass density (308.15 K, m1 = 0.04998): 996 ± 0.4 kg/m3
- mass density (308.15 K, m1 = 0.05936): 996.33 ± 0.4 kg/m3
- mass density (308.15 K, m1 = 0.06926): 996.69 ± 0.4 kg/m3
- mass density (308.15 K, m1 = 0.07949): 997.06 ± 0.4 kg/m3
- mass density (308.15 K, m1 = 0.08906): 997.4 ± 0.4 kg/m3
- mass density (308.15 K, m1 = 0.09935): 997.74 ± 0.4 kg/m3
- mass density (308.15 K, m1 = 0.1984): 1001.28 ± 0.4 kg/m3
- mass density (308.15 K, m1 = 0.2977): 1004.77 ± 0.4 kg/m3
- mass density (308.15 K, m1 = 0.404): 1008.39 ± 0.4 kg/m3
- mass density (308.15 K, m1 = 0.5055): 1011.84 ± 0.4 kg/m3
- mass density (308.15 K, m1 = 0.6055): 1015.15 ± 0.4 kg/m3
- mass density (308.15 K, m1 = 0.6936): 1018.07 ± 0.4 kg/m3
- mass density (308.15 K, m1 = 0.7926): 1021.29 ± 0.4 kg/m3
- mass density (308.15 K, m1 = 0.891): 1024.47 ± 0.4 kg/m3
- mass density (308.15 K, m1 = 0.9895): 1027.51 ± 0.4 kg/m3

Source: the NIST ThermoML archive (doi:10.1016/j.jct.2016.06.023)
